The text below walks through data of patent US20260256770A1, “COMPOSITIONS FOR AND METHODS OF TREATING HEREDITARY AORTOPATHIES” (Duke University, priority 2021, published 2026).

Broadly, the IC50 is the concentration needed to halve the response being measured.

“Also recorded” adds a separate entry of the source. Where only a bound is given, the exact number is not on record here.

The test system of data set [1] is 129S MFS mice. Particulars: 129S background, Mmp17/EGFR/p38MAPK/ERK effects; cited from earlier work.
In data set [2] the test system is MFS patients. Particulars: clinical; cited from earlier work.
In data set [3] the test system is MFS mice. Particulars: cited from earlier work.
Data set [4] deals with accelerated MFS (aMFS) mice. The conditions noted are these: aMFS aneurysms generated with exogenous angiotensin II; cited from earlier work.
The target in data set [5] is T1, TRPC4 (Mus musculus, UniProt Q9QUQ5).
T1 construct: expressed in transfected cells; host or cells: HEK293
T1 sequence (Q9QUQ5 1-890 isoform Q9QUQ5-2): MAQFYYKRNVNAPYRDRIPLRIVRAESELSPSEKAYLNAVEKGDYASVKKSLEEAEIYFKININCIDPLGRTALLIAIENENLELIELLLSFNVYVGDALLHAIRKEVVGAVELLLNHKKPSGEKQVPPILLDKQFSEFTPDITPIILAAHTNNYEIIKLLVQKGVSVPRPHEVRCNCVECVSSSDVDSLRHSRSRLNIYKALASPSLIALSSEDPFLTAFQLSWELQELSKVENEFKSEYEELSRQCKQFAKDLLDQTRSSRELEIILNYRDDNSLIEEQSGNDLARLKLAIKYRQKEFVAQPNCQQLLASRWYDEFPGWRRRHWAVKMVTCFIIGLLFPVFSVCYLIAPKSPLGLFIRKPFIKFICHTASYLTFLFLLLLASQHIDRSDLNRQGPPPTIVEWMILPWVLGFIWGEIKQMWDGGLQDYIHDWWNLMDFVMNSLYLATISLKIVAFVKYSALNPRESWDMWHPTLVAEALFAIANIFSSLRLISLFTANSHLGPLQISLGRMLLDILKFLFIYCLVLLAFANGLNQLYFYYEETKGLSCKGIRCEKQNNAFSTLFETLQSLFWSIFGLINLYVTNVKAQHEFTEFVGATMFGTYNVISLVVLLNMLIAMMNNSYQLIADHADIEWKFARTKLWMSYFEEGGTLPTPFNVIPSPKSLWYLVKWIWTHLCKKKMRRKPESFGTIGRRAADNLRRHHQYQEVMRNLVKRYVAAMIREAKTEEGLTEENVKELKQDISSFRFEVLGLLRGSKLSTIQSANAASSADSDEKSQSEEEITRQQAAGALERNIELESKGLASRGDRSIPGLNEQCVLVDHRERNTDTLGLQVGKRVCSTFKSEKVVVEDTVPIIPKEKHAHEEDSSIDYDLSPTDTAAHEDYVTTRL
Particulars: ML204 as reference for projected binding affinity of candidate inhibitors; cited from earlier work.

The test system of data set [6] is FBN1 mutant MFS mouse. In words: Accelerated MFS model: osmotically delivered angiotensin II infusion in FBN1 mutant MFS mouse. Type of data set: in vivo. From the text:
(§1) The Examples provided infra use a novel murine MFS model of accelerated aortic aneurysm formation and cardiomyopathy. This MFS uses two well-characterized in vivo systems for studying aortopathy and cardiomyopathy, namely, the FBN1 mutant MFS mouse and osmotically delivered angiotensin II infusion. In this accelderated model, significant aortic aneurysms were observed as early as 10 days after angiotensin II pump implantation. […] Overwhelmingly, these deaths were a result of ascending aortic aneurysm rupture or dissection. […] Similarly, the accelerated MFS model described and used herein produced a dilated cardiomyopathy as early as 14 days after angiotensin II minipump installation, as determined by echocardiographic measurements of end-diastolic volume and ejection fraction, heart mass-to-body weight ratios, and hematoxylin and eosin tissue staining patterns consistent with the diagnosis. After 14 days of pump installation, 60% of surviving angiotensin II-infused MFS mice met a defined echocardiographic criteria for dilated cardiomyopathy.
(§2) To better understand these clinical differences, a MFS mouse model was generated to facilitate high throughput therapeutic screening. Using exogenous angiotensin II in MFS mice, ascending aortic aneurysms can be generated in 2 weeks instead of 6-9 months (Cavanaugh N B, et al. (2017) Ann Thorac Surg. 104:657-665). […] TRPC4 antagonists therefore represent an opportunity to replace surgery in MFS aortopathy.

Data set [7] relates to FBN1 mutant MFS mouse. Particulars: instead of 6-9 months in MFS mice; cited from earlier work.
A short description of data set [8]: Accelerated MFS model: osmotically delivered angiotensin II infusion in FBN1 mutant MFS mouse. Type of data set: in vivo. The conditions noted are these: angiotensin II-infused wild-type mice over the treatment period.
Source text: as §1, §2

In the case of `C#Cc1cccc(Nc2ncnc3cc(OCCOC)c(OCCOC)cc23)c1` [Erolotinib], the “aggressive MFS phenotype” value in data set [1] was “rescue the aggressive MFS phenotype”.
On to `CCCCc1nc(Cl)c(CO)n1Cc1ccc(-c2ccccc2-c2nn[nH]n2)cc1` [Losartan], for which, in data set [2], the aneurysm progression entry is on record as “only slowed aneurysm progression” and the “number of patients who ultimately required surgery” value is “did not affect”. Besides, the aneurysm growth entry in data set [3] (MFS mice started on therapy after aneurysms have formed / later in life) was “only attenuates aneurysm growth; also recorded: aneurysms continue to grow albeit at a slower rate; also recorded: had less of an effect”. Besides, the “aneurysm formation / development” value in data set [3] (MFS mice treated prior to aneurysm development / at an early age) was “blocked aneurysm formation; also recorded: blocks aneurysm development; also recorded: did not develop aneurysms”. In addition, the aortic diameter growth in data set [3] (estimate used for power calculation, 0.1 mm standard deviation) is recorded as 0.4 mm. For the same molecule, the “response of aneurysms to therapy” value in data set [4] is “only partially respond”.
Consider `Cc1cc(N2CCCCC2)nc2ccccc12` [ML204, 4-Methyl-2-(piperidin-1-yl) quinoline], for which, in data set [5], the IC50 was 960 to 2600 nM.
Take “angiotensin II (DRVYIHPF; Angiotensin-2; UniProt P11859 25-32, looked up) [osmotically delivered exogenous angiotensin II used to accelerate aneurysm formation in MFS mice]”: the “deaths of treatment group” value in data set [6] (at 14 days after implant) is on record as “one third”; in data set [6] (at 28 days after implant) it was “more than half”.
Take “angiotensin II [osmotically delivered exogenous angiotensin II used to accelerate aneurysm formation in MFS mice]”: the “time to generate ascending aortic aneurysms” value in data set [7] was 2 weeks. In addition, in data set [6] (MFS mice), the “time to significant aortic aneurysms after pump implantation” value was no less than 10 days. Also, the “time to dilated cardiomyopathy after minipump installation” value in data set [6] (MFS mice, echocardiography) is no less than 14 days. Further, the “surviving mice meeting echocardiographic criteria for dilated cardiomyopathy” value in data set [6] (after 14 days of pump installation) was 60%. In data set [6] (treatment group), the blood pressures entry is recorded as “not elevated”. For the same molecule, the aneurysm formation result in data set [8] is reported as “did not form aneurysms”.
